Measurements from US7829526B2, “Cardioinhibitory/antihypertensive novel endogenous physiologically active peptide” (Japan Science and Technology Agency, priority 2004, dated 2010).

Experiments:
[1] = Cardioinhibitory or hypotensive activity of deletion variants and homologue (method not described); conditions: variants of SEQ ID No: 2
SD rats = conditions: cited from earlier work; for hypotensive and bradycardiac effects: 1 min after intravenous administration, SD rats under pentobarbital anesthesia; for dose dependence of hypotensive and bradycardiac effects: salusin-α 1-10 nmol/kg, salusin-β 0.1-1 nmol/kg
[2] = test system: isolated rat aortic preparation; conditions: intact and endothelium-detached preparations, unconstricted or constricted with phenylephrine; cited from earlier work
intact-rats = test: Effect of synthesized peptide on intact anesthetized rats (blood pressure, heart rate, aortic flow); assay type: in vivo, rat; conditions: for hypotensive effect: anesthetized SD rats, synthetic peptide 10 nmol/kg intravenously
Description: Meanwhile, a peptide of the present invention consisting of the amino acid sequence shown by SEQ ID No: 2 determined in Example 1, was synthesized with the use of a peptide synthesizer (Shimadzu, PSSM-8), and tested in the following experiment. SD rats weighing 400 to 525 g were used as test animals.
SD rats were anesthetized by intraperitoneal pentobarbital sodium (50 mg/kg), and a synthesized peptide was administered intravenously via a catheter placed in the […]. Heart rates and blood pressure were measured according to a method described previously (Nat Med 9: 1166-72, 2003) with the use of an electromagnetic flowmeter (MFV-1100, Nihon Koden). Further, a flowmeter was attached to the abdominal aorta, and aortic flow was measured according to the above method described previously. Synthetic peptides (10 nmol/kg) were administered intravenously over a period of 15 seconds or more, and systolic pressure (SP), diastolic pressure (DP) mean aortic pressure (MAP), heart rate (HR) were measured. A hypotensive effect of a synthetic peptide of the present invention was observed.

[3] = test system: isolated, perfused rat hearts; test: Isolated heart working model (isolated perfused rat heart); conditions: for cardiac contractility (inotropism): rat hearts, direct action on heart
Description: Isolated heart working model was used for estimating direct effect on cardiac muscle, according to a method described previously (Nat Med 9:[…], 2003). A heart isolated from a rat was set on an isolated heart perfusion apparatus (Primetech Corporation, IPH-W2) which was perfused with a Krebs Henseleit Buffer at 37° C., and stabilized. Subsequently, synthetic peptides were administered (10^−8 mol/l). Then, HR, SP, DP, MAP and aortic flow (AF) were measured over a period of 15 min. Coronary flow (CF) was measured by collecting coronary sinus effluent before and at 5 and 10 min after administering the peptide agent. Based on the obtained data, cardiac output (CO) was calculated by adding AF and CF, whereas stroke volume (SV) was obtained by dividing CO by HR, and then normalized by the heart volume of each rat.

[4] = intravenous administration into anesthetized rats

Substance | cardioinhibitory activity or hypotensive activity [1] | hypotensive and bradycardiac effects (SD rats) | hypotensive effects after pretreatment with NO synthase inhibitor L-NAME (SD rats) | dose dependence of hypotensive and bradycardiac effects (SD rats) | direct effect on isolated rat aorta [2] | other results
(1-20): SEQ ID No: 2 wherein 4 amino acids at C-terminal end are deleted (AIFIFISNTGGKQINQVALE; listed as Homo sapiens) | potent cardioinhibitory activity or hypotensive activity is maintained |  |  |  |  | 
(5-24): SEQ ID No: 2 wherein 4 amino acids at N terminal end are deleted (FISNTGGKQINQVALEAWRS; listed as Homo sapiens) | potent cardioinhibitory activity or hypotensive activity is maintained |  |  |  |  | 
salusin-β: related peptide of 20 amino acids biosynthesized by processing of preprosalusin (AIFIFIRWLLKLGHHGRAPP; salusin-beta) |  | rapid hypotensive and bradycardiac effects | not affected | dose-responsive | did not show any direct effect | potency compared to salusin-α (SD rats; hypotensive and bradycardiac effects): approximately 10 fold
AIFIFISNTGGKQINQVALEAWRS (listed as Homo sapiens) [peptide of the present invention, human-derived 24 amino acid peptide translated from TOR2A mRNA] |  |  |  |  |  | hypotensive effect (intact-rats; FIG. 1, listed as This peptide): significant hypotensive activity; hypotensive effect (intact-rats; FIG. 1, listed as synthetic peptide of the present invention): observed; aortic blood flow (intact-rats; [4]): reduced; heart rates (intact-rats; [4]): reduced; aortic pressure (intact-rats; intravenous administration into anesthetized rats, FIG. 1): marked lowering; negative inotropic and chronotropic effects (intact-rats; rank among endogenous peptides, FIG. 2): most potent endogenous peptide identified thus far; coronary flow ([3]; isolated rat heart, peptide 10^−8 mol/l, before and at 5 and 10 min, FIG. 2): lowering coronary flow; cardiac contractility (inotropism) [3]: potently reduce cardiac contractility; cardiac contractility (inotropism) ([3]; listed as This peptide): negative inotropism
(2-13): SEQ ID No: 2 wherein 11 amino acids at C-terminal end and 1 amino acid at N-terminal end are deleted (IFIFISNTGGKQ; listed as Homo sapiens) | the activity is somewhat decreased |  |  |  |  | 
salusin-α: related peptide of 28 amino acids biosynthesized by processing of preprosalusin (SGALPPAPAAPRPALRAQRAGPAGPGAK; salusin-alpha) |  | rapid hypotensive and bradycardiac effects | not affected | dose-responsive | did not show any direct effect | 
